Experimental data taken from patent US20030039657A1, “Inducible vaccines” (priority 1999, published 2003).

Test system: humoral immune response against hAAT
Test: Anti-hAAT antibody (humoral immune response) in mouse serum by ELISA after gene-gun DNA inoculation
Type: in vivo, balb/c mice
Description: Five to 7-week-old female Balb/c mice were given 4 μg reporter (P4U-hAAT) and 200 ng effector (GS1158) of the mifepristone-inducible plasmid DNA divided into four shots. Mifepristone was given i.p. 20 weeks after DNA administration (Day 140, 142, 144). Blood samples were take from the tail vein at various time points and anti-hAAT levels were determined by ELISA. Values are mean +/−SD for three mice per group. The control is with no drug treatment.
Specific-pathogen-free (5-7 weeks old), female balb/c mice were purchased from Jackson Labs (Bar Harbor, Me.). A biolistic gene gun (Rumsey-Loomis, Ithaca, N.Y.) was used to deliver plasmid DNA into the skin of mouse ears (Williams et al., 1991; Johnston and Tang 1993). Briefly, DNA was precipitated onto gold micro-projectiles (3±1 μm diameter, Metz Metallurgical Corp., South Plainfield, N.J.) at 4 μg DNA/mg gold. Each mouse received four shots of gold-DNA and each shots contains 1 μg reporter (P4U-AAT) and 50 ng effector (GS-1158) plasmid DNA. The drug (RU486, Sigma) was given intraperitoneally on days 1, 3, 5, and also on day 14, 16, in a dose of 500 μg/kg/day in 100 μl sesame oil, after DNA injection. […] The blood samples of the mice was collected from the tail vein at the time point as indicated. The anti-hAAT antibodies in the serum was measured using enzyme-linked immuno enzyme-linked immunosorbent assay (ELISA, Tang et al. 1992). Briefly, ninety six-well plats were coated with 1 μg hAAT per well in 50 μl phosphate buffered saline (PBS) (for overnight at 4° C. and 100 μl blocking buffer (3% bovine serum albumin (3SA) in PBS with 0.05% tween 20) was added and incubated for 2 hrs at room temperature. After 3 times washing with PBS plus 0.05% tween 20, the serum samples (diluted 1:200 in blocking buffer) were added into the well and incubated overnight at 4° C., then further incubated with horseradish peroxidase-conjugated goat anti-mouse immunoglobulin G and M (Jackson ImmunResearch, West Grove, Pa.) for 1 h at room temperature. The plate was washed and developed with TMB buffer solution (Calbiochem). The optical density was read at 450 nm and concentration of the antibodies was determined according to the standard curve.
The mice were given RU486 intraperitoneally in week 7 (Day 50, 52, 54) after the DNA injection in the drug and the Van Gogh (removed the site of the DNA inoculation, ear) groups. The ear cut was performed before administering the drug. The value shown is the mean with standard deviation for experiments on three mice.

CC#C[C@]1(O)CC[C@H]2[C@@H]3CCC4=CC(=O)CCC4=C3[C@@H](c3ccc(N(C)C)cc3)C[C@@]21C [RU486, mifepristone]
anti-hAAT antibody levels, time of peak (FIG. 3, 4 shots of 1 μg P4U-AAT + 50 ng GS-1158, RU486 500 μg/kg/day ip days 1, 3, 5, 14, 16): reached peak levels at the third week
anti-hAAT immune response, inducibility by ligand (FIG. 4, RU486 on week 3 (day 21, 23, 25) after DNA, 1 μg reporter and 50 ng effector per shot): inducible by simply giving the ligand three weeks after the primary injection of the DNA
anti-hAAT immune response, inducibility by ligand (FIG. 6, RU486 ip in week 7 (Day 50, 52, 54) after DNA injection): inducible 7 weeks after the DNA injection
anti-hAAT immune response after removal of the DNA inoculation site (Van Gogh group) (FIG. 6, ear cut before RU486 in week 7): the original vaccine site was not required for induction
